The values below come from patent publication US7354922B2, “Bridged ring NK1 antagonists” (Schering Corporation, priority 2004, dated 2008).

NK1 receptor, sequence (P25103 whole entry, species assumed): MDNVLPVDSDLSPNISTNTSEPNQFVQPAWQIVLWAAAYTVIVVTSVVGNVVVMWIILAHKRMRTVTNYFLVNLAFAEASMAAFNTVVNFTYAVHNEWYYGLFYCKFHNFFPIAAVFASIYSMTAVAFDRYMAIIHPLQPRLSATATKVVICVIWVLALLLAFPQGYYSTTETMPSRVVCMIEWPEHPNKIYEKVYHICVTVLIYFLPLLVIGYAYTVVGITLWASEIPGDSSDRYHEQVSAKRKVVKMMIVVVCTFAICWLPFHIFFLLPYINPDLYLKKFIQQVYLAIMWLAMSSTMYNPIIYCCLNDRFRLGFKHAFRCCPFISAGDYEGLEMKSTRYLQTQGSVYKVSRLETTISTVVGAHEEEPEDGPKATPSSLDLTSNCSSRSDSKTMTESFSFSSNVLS

This assay deals with NK1 receptor (Homo sapiens, UniProt P25103). The assay is described as follows: NK1 receptor binding (inhibition of Substance P binding, Ki by Chang-Prusoff equation). From the text: The in vitro and in vivo NK1, NK2 and NK3 activities of the compounds of Formula (I) can be determined by various procedures known in the art, such as a test for their ability to inhibit the activity of the NK1 agonist Substance P. The percent inhibition of neurokinin agonist activity is the difference between the percent of maximum specific binding (“MSB”) and 100%. The percent of MSB is defined by the following equation, wherein “dpm” represents “disintegrations per minute”:
[formula] The concentration at which the compound produces 50% inhibition of binding is then used to determine an inhibition constant (“Ki”) using the Chang-Prusoff equation.
The activities (potencies) for the compounds of the invention are determined by measuring their Ki values. […] Even more preferred are compounds having average Ki values of from 0.05 nM to about 5 nM for the NK1 receptor. Especially preferred compounds have NK1 average Ki values of from 0.05 nM to about 1 nM. Even more especially preferred compounds have NK1 average Ki values of from 0.05 nM to about 0.2 nM.
What is called Ki is the dissociation constant of the complex between target and ligand, obtained from inhibition or displacement. Read a high Ki as a looser hold on the target. The molecule `C[C@@H](OC[C@@]1(c2ccccc2)CC[C@@]2(NC(N)=O)CCCN1C2)c1cc(C(F)(F)F)cc(C(F)(F)F)c1` [Example 47] returned a Ki of 0.12 nM.

In the case of `C[C@@H](OC[C@@]1(c2ccccc2)CC[C@]2(CN3CCCCC3=O)CN1CC(=O)N2)c1cc(C(F)(F)F)cc(C(F)(F)F)c1` [Example 30], the affinity, expressed as Ki, was 0.11 nM.

The molecule `C[C@@H](OC[C@@]1(c2ccccc2)CC[C@]2(CC#N)CN1CC(=O)N2)c1cc(C(F)(F)F)cc(C(F)(F)F)c1` [Example 8] showed a Ki of 0.12 nM.

The molecule `C[C@@H](OC[C@@]1(c2ccccc2)CC[C@]2(CO)CN1CCN2)c1cc(C(F)(F)F)cc(C(F)(F)F)c1` [Example 57] returned an inhibitory constant (Ki) of 0.12 nM.

In turn, `C[C@@H](OC[C@@]1(c2ccccc2)CC[C@@H]2CN1CCN2)c1cc(C(F)(F)F)cc(C(F)(F)F)c1` [Example 4] gave a Ki of 0.11 nM.

In the case of `C[C@@H](OC[C@@]1(c2ccccc2)CC[C@@]23COCCN2C(=O)CN1C3)c1cc(C(F)(F)F)cc(C(F)(F)F)c1` [Example 51], affinity was put at a Ki of 0.12 nM.

Molecule `C[C@@H](OC[C@@]1(c2ccccc2)CC[C@]2(CC(N)=O)CN1CC(=O)N2)c1cc(C(F)(F)F)cc(C(F)(F)F)c1` [Example 16] gave a Ki of 0.16 nM.

As for `CC(C)=NOC[C@]12CC[C@@](CO[C@H](C)c3cc(C(F)(F)F)cc(C(F)(F)F)c3)(c3ccccc3)N(CC(=O)N1)C2` [Example 33], the Ki was 0.13 nM.

In turn, `C[C@@H](OC[C@@]1(c2ccccc2)CC[C@@H]2CN1CCN2C(N)=O)c1cc(C(F)(F)F)cc(C(F)(F)F)c1` [Example 5] came in with a Ki of 0.1 nM.

With `C[C@@H](OC[C@@]1(c2ccccc2)CC[C@]2(CO)CN1CC(=O)O2)c1cc(C(F)(F)F)cc(C(F)(F)F)c1` [Example 49], the Ki came out at 0.16 nM.

As to `C[C@@H](OC[C@@]1(c2ccccc2)CC[C@]2(CO)CN1CC(=O)N2)c1cc(C(F)(F)F)cc(C(F)(F)F)c1` [Example 3a], the Ki was determined as 0.15 nM.

With `CSC[C@]12CC[C@@](CO[C@H](C)c3cc(C(F)(F)F)cc(C(F)(F)F)c3)(c3ccccc3)N(CC(=O)N1)C2` [Example 34], the inhibitory constant (Ki) was 0.07 nM.

`C[C@@H](OC[C@@]1(c2ccccc2)CC[C@]2(COC(N)=O)CN1CC(=O)N2)c1cc(C(F)(F)F)cc(C(F)(F)F)c1` [Example 15] showed an inhibitory constant (Ki) of 0.09 nM.

The molecule `C[C@@H](OC[C@@]1(c2ccccc2)CC[C@]2(Cn3cnnn3)CN1CC(=O)N2)c1cc(C(F)(F)F)cc(C(F)(F)F)c1` [Example 20] displayed a Ki of 0.15 nM. Against the preceding molecule, the Ki is about 1.7-fold higher.

`C[C@@H](OC[C@@]1(c2ccccc2)CC[C@]2(CNS(C)(=O)=O)CN1CC(=O)N2)c1cc(C(F)(F)F)cc(C(F)(F)F)c1` [Example 38] gave a Ki of 0.12 nM.

Turning to `COC[C@]12CC[C@@](CO[C@H](C)c3cc(C(F)(F)F)cc(C(F)(F)F)c3)(c3ccccc3)N(CC(=O)N1)C2` [Example 12], the affinity, expressed as Ki, was 0.13 nM. The Ki values of the last two molecules are within 1.5-fold of each other.

`C[C@@H](OC[C@@]1(c2ccccc2)CC[C@]2(CNC3CC3)CN1CC(=O)N2)c1cc(C(F)(F)F)cc(C(F)(F)F)c1` [Example 32] showed a Ki of 0.11 nM.
